Measured values reported in paper PMC3914206.

Assays:
[1] = target: T1, panel of 442 kinases (Homo sapiens, UniProt P50613); assay type: binding; details: Compound Concentration 10 µM
T1 construct: purchased KINOMEscan
Excerpt: (§1) We assessed the selectivity of members of this scaffold using the KINOMEscan methodology across a near comprehensive panel of 442 kinases [[18,27]].

[2] = target: T2, panel of 442 kinases (Homo sapiens, UniProt Q8IVH8); assay type: binding; details: Compound Concentration 10 µM
T2 construct: purchased KINOMEscan
T2 sequence (Q8IVH8 1-894): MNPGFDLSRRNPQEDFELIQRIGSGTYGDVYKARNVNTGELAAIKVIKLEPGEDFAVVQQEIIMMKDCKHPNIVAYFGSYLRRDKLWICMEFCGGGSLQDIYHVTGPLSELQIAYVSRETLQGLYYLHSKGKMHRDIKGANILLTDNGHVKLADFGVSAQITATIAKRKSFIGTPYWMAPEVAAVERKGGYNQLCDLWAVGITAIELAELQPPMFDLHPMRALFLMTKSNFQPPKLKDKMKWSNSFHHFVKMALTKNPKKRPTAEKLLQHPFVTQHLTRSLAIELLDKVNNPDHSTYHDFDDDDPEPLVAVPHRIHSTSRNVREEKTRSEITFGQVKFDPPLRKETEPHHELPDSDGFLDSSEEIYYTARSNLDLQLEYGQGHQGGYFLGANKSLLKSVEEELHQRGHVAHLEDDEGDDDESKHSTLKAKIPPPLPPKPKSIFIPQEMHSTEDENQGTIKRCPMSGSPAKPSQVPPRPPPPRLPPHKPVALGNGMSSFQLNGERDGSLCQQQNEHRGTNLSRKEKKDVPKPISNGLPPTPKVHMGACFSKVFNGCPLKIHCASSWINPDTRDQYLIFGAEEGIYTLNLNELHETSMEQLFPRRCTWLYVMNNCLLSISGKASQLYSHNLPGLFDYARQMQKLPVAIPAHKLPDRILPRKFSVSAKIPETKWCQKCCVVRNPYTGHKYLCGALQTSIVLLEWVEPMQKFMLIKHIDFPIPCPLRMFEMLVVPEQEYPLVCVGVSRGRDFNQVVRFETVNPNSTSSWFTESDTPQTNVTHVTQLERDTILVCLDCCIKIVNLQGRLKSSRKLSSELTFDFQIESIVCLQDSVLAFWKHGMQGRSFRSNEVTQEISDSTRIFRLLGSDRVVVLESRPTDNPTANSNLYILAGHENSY
Excerpt: as §1

T1 sequence (P50613 whole entry): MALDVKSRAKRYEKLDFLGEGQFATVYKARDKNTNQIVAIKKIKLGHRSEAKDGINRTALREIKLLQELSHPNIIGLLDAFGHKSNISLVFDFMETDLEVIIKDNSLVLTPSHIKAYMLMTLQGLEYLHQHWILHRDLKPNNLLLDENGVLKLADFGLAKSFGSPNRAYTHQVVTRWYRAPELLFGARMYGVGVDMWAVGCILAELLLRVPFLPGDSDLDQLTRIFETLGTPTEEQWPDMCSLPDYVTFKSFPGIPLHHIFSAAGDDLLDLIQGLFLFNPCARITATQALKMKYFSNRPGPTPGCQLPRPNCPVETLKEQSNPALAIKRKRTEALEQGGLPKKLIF

SMILES | KINOMEscan: CDK7 [1] | KINOMEscan: MAP4K3 [2]
CCOc1cc(C(=O)N2CCC(N3CCN(C)CC3)CC2)ccc1Nc1ncc2c(n1)N(C1CCCC1)c1ccccc1C(=O)N2C [Compound 26] | 57 | 98
COc1cc(C(=O)N2CCC(N3CCN(C)CC3)CC2)ccc1Nc1ncc2c(n1)N(C1CCCC1)c1ccccc1C(=O)N2C [Compound 25, 11-cyclopentyl-2-((2-methoxy-4-(4-(4-methylpiperazin-1-yl)piperidine-1-carbonyl)phenyl)amino)-5-methyl-5H-benzo[e]pyrimido[5,4-b][1,4]diazepin-6(11H)-one] | 18 | 100
COc1cc(C(=O)N2CCC(N3CCN(C)CC3)CC2)ccc1Nc1ncc2c(n1)N(C)c1ccccc1C(=O)N2C [15 (LRRK2-IN-1)] | 86 | 71
